Test results as given in US20260022142A1, “MACROCYCLIC IMMUNOMODULATORS” (Bristol-Myers Squibb Company, priority 2022, published 2026).
Bridge positions count the residues as written; N and C are the ends. Square brackets hold non-standard residues; d marks the D form. Peptide text beside a SMILES is read from it. * marks the point of attachment. ξ: configuration not given here. Bip = N[C@@H](Cc1ccc(-c2ccccc2)cc1)C(=O)O; Phe(3-Me) = Cc1cccc(C[C@H](N)C(=O)O)c1; Val(3-OH) = CC(C)(O)[C@H](N)C(=O)O; Cha = N[C@@H](CC1CCCCC1)C(=O)O; Cit = NC(=O)NCCC[C@H](N)C(=O)O; Thr(3ξ) = CC(O)[C@H](N)C(=O)O; Tle = CC(C)(C)[C@H](N)C(=O)O; 12Ado = NCCCCCCCCCCCC(=O)O; Carboxymethyl = O=C(O)C*; Orn = NCCC[C@H](N)C(=O)O; Aun = NCCCCCCCCCCC(=O)O; Dab = NCC[C@H](N)C(=O)O; Dap = NC[C@H](N)C(=O)O

Molecular target: T1, PD-1/PD-L1 interaction (PE-labeled human PD-L1-Ig binding to Jurkat cell line over-expressing human PD-1) (Homo sapiens, UniProt Q15116)
T1 construct: expressed in transfected cells; host or cells: Jurkat
Test: Jurkat-PD-1 Cell Binding High-Content Screening Assay (CBA)
Format: cell-based
Conditions: Jurkat cell line over-expressing human PD-1; PE-labeled PD-L1-Ig 20 nM final; read-out: Jurkat hPD1-PDL1 IC50
How it was run: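 Jurkat-hPD-1 cells, DMEM/10% FCS; cpd 2 h 37° C; PE-PD-L1-Ig 20 nM final, 1 h; 4% PFA fix + Hoechst 33342, 3× dPBS wash; high-content imaging read-out.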

T1 sequence (Q15116 25-288): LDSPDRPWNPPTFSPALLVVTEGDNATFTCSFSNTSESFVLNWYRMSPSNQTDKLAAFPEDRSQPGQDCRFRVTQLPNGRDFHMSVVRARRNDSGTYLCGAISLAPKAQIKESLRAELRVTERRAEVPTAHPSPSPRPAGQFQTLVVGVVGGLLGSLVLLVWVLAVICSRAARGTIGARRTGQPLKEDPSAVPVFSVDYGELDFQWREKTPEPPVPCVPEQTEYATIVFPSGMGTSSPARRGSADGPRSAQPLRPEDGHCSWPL

Compound | IC50
Cc1cccc(C[C@@H]2NC(=O)[C@H](CC(=O)O)NC(=O)[C@H](Cc3ccc(OCC(=O)O)cc3)NC(=O)[C@H](CCCNC(=N)N)NC(=O)CSC[C@@H](C(=O)N[C@H](CC(N)=O)C(=O)NCCCCCCCCCCC(=O)O)NC(=O)[C@H](C(C)O)NC(=O)[C@H](C(C)O)NC(=O)[C@H](CC3CCCCC3)NC(=O)[C@H](CCN)NC(=O)[C@@H](CC(C)C)NC(=O)[C@H](CCCN)NC(=O)[C@H](Cc3ccc(OCC(=O)O)cc3)NC(=O)[C@H](Cc3ccc(-c4ccccc4)cc3)NC(=O)[C@H](Cc3ccc(OCC(=O)O)cc3)NC2=O)c1 (stereo partly drawn) [Compound 3523] ({CH2CO}-RY(Carboxymethyl)D[Phe(3-Me)]Y(Carboxymethyl)[Bip]Y(Carboxymethyl)[Orn][dL][Dab][Cha][Thr(3ξ)][Thr(3ξ)]C[dN][Aun]-OH; thioether N-14) | 121 nM
Cc1cccc(C[C@@H]2NC(=O)[C@H](CC(=O)O)NC(=O)[C@H](Cc3ccc(OCC(=O)O)cc3)NC(=O)[C@H](CCCNC(=N)N)NC(=O)CSC[C@@H](C(=O)N[C@H](CC(N)=O)C(=O)NCCCCCCCCCCC(=O)O)NC(=O)[C@H](C(C)O)NC(=O)[C@H](C(C)O)NC(=O)[C@H](CC3CCCCC3)NC(=O)[C@H](CCN)NC(=O)[C@@H](CC(C)C)NC(=O)[C@H](CCCN)NC(=O)[C@H](Cc3ccc(OCC(=O)O)cc3)NC(=O)[C@H](Cc3ccc(-c4ccccc4)cc3)NC(=O)[C@H](Cc3ccc(O)cc3)NC2=O)c1 (stereo partly drawn) [Compound 3524] ({CH2CO}-RY(Carboxymethyl)D[Phe(3-Me)]Y[Bip]Y(Carboxymethyl)[Orn][dL][Dab][Cha][Thr(3ξ)][Thr(3ξ)]C[dN][Aun]-OH; thioether N-14) | 40.8 nM
Cc1cccc(C[C@@H]2NC(=O)[C@H](CC(=O)O)NC(=O)[C@H](Cc3ccc(OCC(=O)O)cc3)NC(=O)[C@H](CCCNC(=N)N)NC(=O)CSC[C@@H](C(=O)N[C@H](CC(N)=O)C(=O)NCCCCCCCCCCC(=O)O)NC(=O)[C@H](CCC(N)=O)NC(=O)[C@H](C(C)(C)C)NC(=O)[C@H](CC3CCCCC3)NC(=O)[C@H](CCN)NC(=O)[C@@H](CC(C)C)NC(=O)[C@H](CCCN)NC(=O)[C@H](Cc3ccc(OCC(=O)O)cc3)NC(=O)[C@H](Cc3ccc(-c4ccccc4)cc3)NC(=O)[C@H](Cc3ccc(OCC(=O)O)cc3)NC2=O)c1 [Compound 3528] ({CH2CO}-RY(Carboxymethyl)D[Phe(3-Me)]Y(Carboxymethyl)[Bip]Y(Carboxymethyl)[Orn][dL][Dab][Cha][Tle]QC[dN][Aun]-OH; thioether N-14) | 87.8 nM
Cc1cccc(C[C@@H]2NC(=O)[C@H](CC(=O)O)NC(=O)[C@H](Cc3ccc(OCC(=O)O)cc3)NC(=O)[C@H](CCCNC(=N)N)NC(=O)CSC[C@@H](C(=O)N[C@@H](CCN)C(=O)NCCCCCCCCCCC(=O)O)NC(=O)[C@H](CO)NC(=O)[C@H](C(C)O)NC(=O)[C@H](CC3CCCCC3)NC(=O)[C@H](CCN)NC(=O)[C@@H](CC(C)C)NC(=O)[C@H](CCCN)NC(=O)[C@H](Cc3ccc(OCC(=O)O)cc3)NC(=O)[C@H](Cc3ccc(-c4ccccc4)cc3)NC(=O)[C@H](Cc3ccc(OCC(=O)O)cc3)NC2=O)c1 (stereo partly drawn) [Compound 3530] ({CH2CO}-RY(Carboxymethyl)D[Phe(3-Me)]Y(Carboxymethyl)[Bip]Y(Carboxymethyl)[Orn][dL][Dab][Cha][Thr(3ξ)]SC[Dab][Aun]-OH; thioether N-14) | 7.3 nM
Cc1cccc(C[C@@H]2NC(=O)[C@H](CC(=O)O)NC(=O)[C@H](Cc3ccc(OCC(=O)O)cc3)NC(=O)[C@H](CCCNC(=N)N)NC(=O)CSC[C@@H](C(=O)N[C@@H](CCN)C(=O)NCCCCCCCCCCC(=O)O)NC(=O)[C@H](CO)NC(=O)[C@H](C(C)(C)C)NC(=O)[C@H](CC3CCCCC3)NC(=O)[C@H](CCN)NC(=O)[C@@H](CC(C)C)NC(=O)[C@H](CCCN)NC(=O)[C@H](Cc3ccc(OCC(=O)O)cc3)NC(=O)[C@H](Cc3ccc(-c4ccccc4)cc3)NC(=O)[C@H](Cc3c[nH]c4ccccc34)NC2=O)c1 [Compound 3531] ({CH2CO}-RY(Carboxymethyl)D[Phe(3-Me)]W[Bip]Y(Carboxymethyl)[Orn][dL][Dab][Cha][Tle]SC[Dab][Aun]-OH; thioether N-14) | 48.6 nM
Cc1cccc(C[C@@H]2NC(=O)[C@H](CC(=O)O)NC(=O)[C@H](Cc3ccc(OCC(=O)O)cc3)NC(=O)[C@H](CCCNC(=N)N)NC(=O)CSC[C@@H](C(=O)N[C@@H](CCN)C(=O)NCCCCCCCCCCC(=O)O)NC(=O)[C@H](CCC(N)=O)NC(=O)[C@H](C(C)(C)C)NC(=O)[C@H](CC3CCCCC3)NC(=O)[C@H](CCN)NC(=O)[C@@H](CC(C)C)NC(=O)[C@H](CCCN)NC(=O)[C@H](Cc3ccc(OCC(=O)O)cc3)NC(=O)[C@H](Cc3ccc(-c4ccccc4)cc3)NC(=O)[C@H](Cc3ccc(OCC(=O)O)cc3)NC2=O)c1 [Compound 3532] ({CH2CO}-RY(Carboxymethyl)D[Phe(3-Me)]Y(Carboxymethyl)[Bip]Y(Carboxymethyl)[Orn][dL][Dab][Cha][Tle]QC[Dab][Aun]-OH; thioether N-14) | 7.5 nM
Cc1cccc(C[C@@H]2NC(=O)[C@H](CC(=O)O)NC(=O)[C@H](Cc3ccc(OCC(=O)O)cc3)NC(=O)[C@H](CCCNC(=N)N)NC(=O)CSC[C@@H](C(=O)N[C@@H](CCCCN)C(=O)N[C@@H](CO)C(=O)NCCCCCCCCCCCC(=O)O)NC(=O)[C@H](CN)NC(=O)[C@H](C(C)C)NC(=O)[C@H](CC3CCCCC3)NC(=O)[C@H](CCN)NC(=O)[C@@H](CC(C)C)NC(=O)[C@H](CCCN)NC(=O)[C@H](CCCNC(N)=O)NC(=O)[C@H](Cc3ccc(-c4ccccc4)cc3)NC(=O)[C@H](C(C)C)NC2=O)c1 [Compound 3534] ({CH2CO}-RY(Carboxymethyl)D[Phe(3-Me)]V[Bip][Cit][Orn][dL][Dab][Cha]V[Dap]CKS[12Ado]-OH; thioether N-14) | 22.6 nM

Continued, values first:

IC50 | Compound
346 nM | Cc1cccc(C[C@@H]2NC(=O)[C@H](CC(=O)O)NC(=O)[C@H](Cc3ccc(OCC(=O)O)cc3)NC(=O)[C@H](CCCNC(=N)N)NC(=O)CSC[C@@H](C(=O)N[C@H](CC(N)=O)C(=O)NCCCCCCCCCCC(=O)O)NC(=O)[C@H](C(C)O)NC(=O)[C@H](CO)NC(=O)[C@H](CC3CCCCC3)NC(=O)[C@H](CCN)NC(=O)[C@@H](CC(C)C)NC(=O)[C@H](CCCN)NC(=O)[C@H](Cc3ccc(OCC(=O)O)cc3)NC(=O)[C@H](Cc3ccc(-c4ccccc4)cc3)NC(=O)[C@H](Cc3c[nH]c4ccccc34)NC2=O)c1 (stereo partly drawn) [Compound 3525] ({CH2CO}-RY(Carboxymethyl)D[Phe(3-Me)]W[Bip]Y(Carboxymethyl)[Orn][dL][Dab][Cha]S[Thr(3ξ)]C[dN][Aun]-OH; thioether N-14)
112 nM | Cc1cccc(C[C@@H]2NC(=O)[C@H](CC(=O)O)NC(=O)[C@H](Cc3ccc(OCC(=O)O)cc3)NC(=O)[C@H](CCCNC(=N)N)NC(=O)CSC[C@@H](C(=O)N[C@H](CC(N)=O)C(=O)NCCCCCCCCCCC(=O)O)NC(=O)[C@H](CO)NC(=O)[C@H](C(C)O)NC(=O)[C@H](CC3CCCCC3)NC(=O)[C@H](CCN)NC(=O)[C@@H](CC(C)C)NC(=O)[C@H](CCCN)NC(=O)[C@H](Cc3ccc(OCC(=O)O)cc3)NC(=O)[C@H](Cc3ccc(-c4ccccc4)cc3)NC(=O)[C@H](Cc3ccc(OCC(=O)O)cc3)NC2=O)c1 (stereo partly drawn) [Compound 3526] ({CH2CO}-RY(Carboxymethyl)D[Phe(3-Me)]Y(Carboxymethyl)[Bip]Y(Carboxymethyl)[Orn][dL][Dab][Cha][Thr(3ξ)]SC[dN][Aun]-OH; thioether N-14)
51.4 nM | Cc1cccc(C[C@@H]2NC(=O)[C@H](CC(=O)O)NC(=O)[C@H](Cc3ccc(OCC(=O)O)cc3)NC(=O)[C@H](CCCNC(=N)N)NC(=O)CSC[C@@H](C(=O)N[C@H](CC(N)=O)C(=O)NCCCCCCCCCCC(=O)O)NC(=O)[C@H](CO)NC(=O)[C@H](C(C)(C)C)NC(=O)[C@H](CC3CCCCC3)NC(=O)[C@H](CCN)NC(=O)[C@@H](CC(C)C)NC(=O)[C@H](CCCN)NC(=O)[C@H](Cc3ccc(OCC(=O)O)cc3)NC(=O)[C@H](Cc3ccc(-c4ccccc4)cc3)NC(=O)[C@H](Cc3ccc(OCC(=O)O)cc3)NC2=O)c1 [Compound 3527] ({CH2CO}-RY(Carboxymethyl)D[Phe(3-Me)]Y(Carboxymethyl)[Bip]Y(Carboxymethyl)[Orn][dL][Dab][Cha][Tle]SC[dN][Aun]-OH; thioether N-14)
78.1 nM | Cc1cccc(C[C@@H]2NC(=O)[C@H](CC(=O)O)NC(=O)[C@H](Cc3ccc(OCC(=O)O)cc3)NC(=O)[C@H](CCCNC(=N)N)NC(=O)CSC[C@@H](C(=O)N[C@H](CC(N)=O)C(=O)NCCCCCCCCCCC(=O)O)NC(=O)[C@H](CCC(N)=O)NC(=O)[C@H](C(C)O)NC(=O)[C@H](CC3CCCCC3)NC(=O)[C@H](CCN)NC(=O)[C@@H](CC(C)C)NC(=O)[C@H](CCCN)NC(=O)[C@H](Cc3ccc(OCC(=O)O)cc3)NC(=O)[C@H](Cc3ccc(-c4ccccc4)cc3)NC(=O)[C@H](Cc3ccc(OCC(=O)O)cc3)NC2=O)c1 (stereo partly drawn) [Compound 3529] ({CH2CO}-RY(Carboxymethyl)D[Phe(3-Me)]Y(Carboxymethyl)[Bip]Y(Carboxymethyl)[Orn][dL][Dab][Cha][Thr(3ξ)]QC[dN][Aun]-OH; thioether N-14)
5.1 nM | Cc1cccc(C[C@@H]2NC(=O)[C@H](CC(=O)O)NC(=O)[C@H](Cc3ccc(OCC(=O)O)cc3)NC(=O)[C@H](CCCNC(=N)N)NC(=O)CSC[C@@H](C(=O)N[C@@H](CCN)C(=O)NCCCCCCCCCCC(=O)O)NC(=O)[C@H](CCC(N)=O)NC(=O)[C@H](C(C)(C)O)NC(=O)[C@H](CC3CCCCC3)NC(=O)[C@H](CCN)NC(=O)[C@@H](CC(C)C)NC(=O)[C@H](CCCN)NC(=O)[C@H](Cc3ccc(OCC(=O)O)cc3)NC(=O)[C@H](Cc3ccc(-c4ccccc4)cc3)NC(=O)[C@H](Cc3ccc(OCC(=O)O)cc3)NC2=O)c1 [Compound 3533] ({CH2CO}-RY(Carboxymethyl)D[Phe(3-Me)]Y(Carboxymethyl)[Bip]Y(Carboxymethyl)[Orn][dL][Dab][Cha][Val(3-OH)]QC[Dab][Aun]-OH; thioether N-14)
